Tests used:
[1] = tested on: human ankle cartilage explants; assay: Aggrecan/sGAG biosynthesis rate (35S-sulfate incorporation) in human ankle cartilage explants; type: cell-based; details: for biosynthesis rate of explants compared to the untreated control: single 39.2 nM dose (equivalent to 300 ng/ml free IGF-1), FIGS. 19A-19B; for sGAG biosynthesis rate: single 500 nM, 1 μM and 2 μM doses, Day 0 to Day 3, both ankle and knee cartilage; for elevated biosynthesis rate after single dose, up to Day 7 / elevated biosynthesis rate after single dose, up to Day 15: single dose not replenished during media changes, FIG. 12 (ankle and knee)
Procedure: (§1) Cartilage was harvested from both ankles of a donor (Collins Grade 0). Cartilage explants were equilibrated in culture media for 3 days after harvest. […] These were cut down to 1 mm thickness and allowed to equilibrate for a further 2.5 days before experiments were set up. A dose response experiment and an uptake experiment were set up in parallel.
Subsets of the experiment were terminated at 3 days and 7 days from the start of the experiment. Media changes were performed every 2 to 3 days. 3 doses of free +9 GFP were included as additional controls, which tests whether high doses of the drug delivery carrier has adverse effects on aggrecan biosynthesis rate.
For the 3-day termination experiment, chondrocyte biosynthesis rate (primarily aggrecan synthesis) was measured between days 0 and 3 of the experiment using a 35S-sulfate radiolabel. For the 7-day experiment, this measurement was done between days 5 and 7. Statistics: 1-way ANOVA with post-hoc Tukey's HSD test.
as §1, with “the ankle” for “both ankles”, “1).” for “0).”, “2” for “3”, “A 7-day” for “A”, “was” for “and an uptake experiment were”, “up.” for “up in parallel.”
Chondrocyte biosynthesis rate (primarily aggrecan synthesis) was measured between days 5 and 7 of the experiment using a 35S-sulfate radiolabel. Statistics: 1-way ANOVA with post-hoc Tukey's HSD test.
Cartilage explants that were equilibrated in culture medium post-harvest were transferred to ultra-low attachment cell culture plates (Corning) for dose response experiments. All experiments were carried out in low glucose, serum free medium (same composition as equilibration medium). Previous studies studying the effects of IGF-1 on cartilage explants have used doses ranging from 10 ng/ml to 300 ng/ml. Based on these, 300 ng/ml (equivalent to 39.2 nM) of free recombinant human IGF-1 (PeproTech, Rocky Hill, NJ) was used as the positive control.
Since each fusion protein had one IGF-1 domain, equivalent doses (39.2 nM) of these were tested. In addition to this, 500 nM, 1 μM and 2 μM doses of fusion proteins were also tested. In all cases, only a single dose of the fusion proteins was added at the start of the experiment, and media changes were carried out without fusion proteins once every 2 to 3 days thereafter. In contrast, continuous doses of free IGF-1 were used for the positive control. An untreated control group was also included in the experiments. Experiments were terminated at 3-day, 7-day and 15-day time points. Outcome measures included the biosynthesis rate of sulfated glycosaminoglycans (sGAG), explant metabolic rate, sGAG loss to the culture medium and the explant sGAG content at the end of the experiment.
The metabolic rate of cartilage explants was measured using the Alamar Blue assay (ThermoFisher). Cartilage explants were incubated for 3 hours in a 1× solution of Alamar Blue dissolved in culture medium. At the end of the incubation period, the absorbance of the medium at 570 nm and 600 nm was measured using a microplate reader (Synergy H1 Hybrid Multi-Mode Microplate Reader, BioTek). These readings were used to calculate the percentage reduction of Alamar Blue, which is directly proportional to the explant metabolic rate. These values were first normalized by individual explant weights. Following this, the weight-normalized readings for the treatment groups were normalized by the weight-normalized mean value for the untreated controls. To measure the chondrocyte biosynthesis rate of sulfated glycosaminoglycans (sGAGs), cartilage explants were cultured in the presence of 10 μCi/mL 35S-sulfate radiolabel during the final two days of each experiment. […]

[2] = tested on: human ankle cartilage explants; assay: Quantitative uptake of fusion proteins in human ankle cartilage (uptake ratio); type: in vitro ADME; details: 1 μM in PBS + 1% BSA
Procedure: Cartilage explants were incubated in 250 μL of 1 μM solutions of different fusion proteins dissolved in 1×PBS+1% BSA for either 36 hours (FIG. 4A) or for 108 hours (FIG. 4B) (4.5 days). A group with free +9 GFP dissolved in 1×PBS+1% BSA (1 μM concentration) was included as a control for each of these two time points. An additional untreated control was included in these experiments. Cartilage explants were incubated in plain 1×PBS+1% BSA to account for and to correct for any autofluorescence effects. At the end of the incubation in the 1×PBS+1% BSA: The explants were transferred to a 10×PBS+1% BSA bath for 48 hours. The purpose of this was to desorb the GFPs taken up by the explants. The amount of GFPs left behind in the […] bath was quantified through fluorescence measurements. The desorption step in 10×PBS+1% BSA was followed by a second desorption step using fresh 10×PBS+1% BSA just to ensure any GFPs left in the explant after the 1st desorption come out. At the end of each desorption step, the fluorescence of the 10×PBS+1% BSA bath was measured. After the 2nd desorption step, the explants were digested in Proteinase K and their fluorescence was measured. The uptake ratio for the 36 hour and 108 hour experiments was calculated as (FIG. 4C): […]
Cartilage explants that had been equilibrated in culture medium post-harvest were transferred to sterile PBS and allowed to equilibrate for 1 hour before the start of the experiments. Sterile PBS solutions containing 1% bovine serum albumin (BSA) were prepared. Following this, 1 μM solutions of (+9GFP), (+9GFP)-(GGGGS)4-(IGF-1) (SEQ ID NO: 7), (+9GFP)-(EAAAK)3-(IGF-1) (SEQ ID NO: 8) and (+9GFP)-(GGGGS)3-(IGF-1) (SEQ ID NO: 9) were prepared. The BSA was included in the PBS to minimize loss of GFPs in the solution caused by non-specific binding to the plasticware. […] In contrast, use of polypropylene with 1% BSA enabled complete recovery of fluorescence.
At the end of the incubation period, cartilage explants were washed with PBS and transferred to a solution of 10×PBS+1% BSA for desorption. At the same time, the fluorescence of the absorption bath was measured using a plate reader (Synergy H1, Biotek Instruments Inc.) (excitation: 485 nm, emission: 528 nm). […] At the end of the desorption in 10×PBS+1% BSA, cartilage explants were weighed, and the fluorescence of the desorption bath was measured. This fluorescence measurement was used with a standard curve and the explant wet weights to calculate the concentration of GFP inside cartilage explants (mol/mg wet weight). The uptake ratio was calculated as the ratio of GFP concentration inside cartilage (mol/mg wet weight) to the final absorption bath concentration (mol/mL).

Row | Substance | aggrecan biosynthesis rate compared to the untreated control ([1]; Experiment 3A, ankle, donor, single 500 nM dose, 3-day time point) | aggrecan biosynthesis rate compared to the untreated control ([1]; Experiment 3A, ankle, single 500 nM dose, 7-day time point) | aggrecan biosynthesis rate compared to the untreated control ([1]; Experiment 3A, ankle, single 1 μM dose, 7-day time point) | aggrecan biosynthesis rate compared to the untreated control ([1]; Experiment 3A, ankle, single 2 μM dose, 3-day time point) | aggrecan biosynthesis rate compared to the untreated control ([1]; Experiment 4, ankle, donor, single 500 nM dose, days 5-7) | aggrecan biosynthesis rate compared to the untreated control ([1]; Experiment 4, ankle, donor, single 1 μM dose, days 5-7) | biosynthesis rate of explants compared to the untreated control [1] | sGAG biosynthesis rate [1] | elevated biosynthesis rate after single dose, up to Day 7 [1] | elevated biosynthesis rate after single dose, up to Day 15 [1] | Uptake ratio (Mean) ([2]; 36 hr) | Uptake ratio (Mean) ([2]; 108 hr) | aggrecan biosynthesis rate compared to the untreated control ([1]; Experiment 3A, ankle, continuous 40 nM free IGF-1, 3-day time point) | aggrecan biosynthesis rate compared to the untreated control ([1]; Experiment 3A, ankle, continuous 40 nM free IGF-1, 7-day time point) | aggrecan biosynthesis rate compared to the untreated control ([1]; Experiment 4, ankle, continuous 40 nM free IGF-1, days 5-7) | sulfate incorporation rate compared to the untreated control ([1]; continuous 39.2 nM free IGF-1, FIG. 19A) | aggrecan biosynthesis rate compared to the untreated control ([1]; Experiment 3A, ankle, all three single doses (500 nM, 1 μM, 2 μM), 7-day time point)
1 | (+9GFP)-(GGGGS)4-(IGF-1): fusion protein of +9 GFP and human IGF-1 with flexible (GGGGS)4 linker, SEQ ID NO: 7 | statistically significantly higher | statistically significantly higher | statistically significantly higher | statistically significantly higher | statistically significantly higher | statistically significantly higher | did not increase | significant increase | sustained up to Day 7 | could not maintain | 12.7 | 18.3 |  |  |  |  | 
2 | IGF-1: free recombinant human IGF-1 (PeproTech), pro-anabolic growth factor used as the positive control |  |  |  |  |  |  |  |  |  |  |  |  | statistically significantly higher | statistically significantly higher | statistically significantly higher | significantly increased | 
3 | (+9GFP)-(EAAAK)3-(IGF-1): fusion protein of +9 GFP and human IGF-1 with rigid (EAAAK)3 linker, SEQ ID NO: 8 |  |  |  |  |  |  | did not increase | significant increase | sustained up to Day 7 | could not maintain |  |  |  |  |  |  | statistically significantly higher
